Values joined by “and” are separate entries in the source; they are usually repeats but may differ in a detail not shown here. Identical values can stand only once. Inconclusive results and toxic doses are left out.
Test system: BDF1 mice, P388 leukemia ip, median survival T/C
Test: NCI In Vivo Anticancer Drug Screen. Data for tumor model P388 Leukemia (intraperitoneal) in B6D2F1 (BDF1) mice
Conditions: endpoint: median survival time, higher = longer survival
Summary of the method: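 Survival ratio, drug arm over vehicle arm, in mice with a transplanted tumour.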

[1] = dose: 25.0 mg/kg/injection, schedule: Q01DX009 (ip), vehicle: saline with Tween-80
[2] = dose: 25.0 mg/kg/injection, schedule: Q01DX009 (ip), vehicle: saline
[3] = dose: 12.5 mg/kg/injection, schedule: Q01DX009 (ip), vehicle: Klucel (hydroxypropylcellulose) (HPC)
[4] = dose: 25.0 mg/kg/injection, schedule: Q01DX009 (ip), vehicle: Klucel (hydroxypropylcellulose) (HPC)
[5] = dose: 50.0 mg/kg/injection, schedule: Q01DX009 (ip), vehicle: saline with Tween-80
[6] = dose: 100.0 mg/kg/injection, schedule: Q04DX003 (ip), vehicle: saline with Tween-80
[7] = dose: 200.0 mg/kg/injection, schedule: Q04DX003 (ip), vehicle: saline with Tween-80

For `CN(CCS)C(=N)N`, the T/C (dose: 3.13 mg/kg/injection, schedule: Q01DX009 (ip), vehicle: saline with Tween-80) was 112 % of control, the T/C (dose: 6.25 mg/kg/injection, schedule: Q01DX009 (ip), vehicle: saline with Tween-80) was 99 % of control and the T/C (dose: 12.5 mg/kg/injection, schedule: Q01DX009 (ip), vehicle: saline with Tween-80) was 111 % of control. For the same molecule, the T/C [1] was 104 % of control.
For `COC1(OC)C2CCC1C(Cl)=C2Cl`, the T/C (dose: 3.13 mg/kg/injection, schedule: Q01DX009 (ip), vehicle: saline) was 102 % of control, the T/C (dose: 6.25 mg/kg/injection, schedule: Q01DX009 (ip), vehicle: saline) was 100 % of control and the T/C [2] was 109 % of control.
`CC(=O)O.[Pb]` was tested, and the T/C [3] was 109 % of control, the T/C [4] was 109 % of control and the T/C [1] was 90 % of control. For the same molecule, the T/C [5] was 90 % of control.
With `CCCCC(=O)NN(Cn1c(=S)sc2ccccc21)Cn1c(=S)sc2ccccc21` the T/C [3] was 109 % of control, the T/C [4] was 109 % of control and the T/C (dose: 50.0 mg/kg/injection, schedule: Q01DX009 (ip), vehicle: Klucel (hydroxypropylcellulose) (HPC)) was 272 % of control.
For `CCCCCCCCCC(=O)CCCCC`, the T/C (dose: 100.0 mg/kg/injection, schedule: Q04DX003 (ip), vehicle: other) was 109 % of control, the T/C (dose: 200.0 mg/kg/injection, schedule: Q04DX003 (ip), vehicle: other) was 109 % of control and the T/C (dose: 400.0 mg/kg/injection, schedule: Q04DX003 (ip), vehicle: other) was 113 % of control.
In the case of `CC(Cc1ccccc1)C(N)=O` (configuration not stated), the T/C (dose: 50.0 mg/kg/injection, schedule: Q04DX003 (ip), vehicle: saline with Tween-80) is reported as 105 % of control, the T/C [6] is reported as 98 % of control and the T/C [7] is reported as 113 % of control.
With `C[C@H]1C=C(O)C(=O)[C@@]2(C)C[C@H]3CCC(=O)O[C@H]3C[C@H]12` the T/C (dose: 2.5 mg/kg/injection, schedule: Q01DX009 (ip), vehicle: saline + alcohol) was 105 % of control, the T/C (dose: 5.0 mg/kg/injection, schedule: Q01DX009 (ip), vehicle: saline + alcohol) was 107 % of control and the T/C (dose: 10.0 mg/kg/injection, schedule: Q01DX009 (ip), vehicle: saline + alcohol) was 91 % of control. For the same molecule, the T/C (dose: 20.0 mg/kg/injection, schedule: Q01DX009 (ip), vehicle: saline + alcohol) was 100 % of control.
With `O=C1c2ccccc2C(=O)C1(Cl)C(Cl)c1ccc([N+](=O)[O-])cc1` (configuration not stated) the T/C (dose: 100.0 mg/kg/injection, schedule: Q01DX009 (ip), vehicle: Klucel (hydroxypropylcellulose) (HPC)) was 105 % of control, the T/C (dose: 200.0 mg/kg/injection, schedule: Q01DX009 (ip), vehicle: Klucel (hydroxypropylcellulose) (HPC)) was 90 % of control and the T/C (dose: 400.0 mg/kg/injection, schedule: Q01DX009 (ip), vehicle: Klucel (hydroxypropylcellulose) (HPC)) was 100 % of control.
`CN1C(c2ccc(Cl)cc2)OCC1(C)C` (configuration not stated) was tested, and the T/C (dose: 50.0 mg/kg/injection, schedule: Q01DX001 (ip), vehicle: saline sonified) was 100 % of control, the T/C (dose: 100.0 mg/kg/injection, schedule: Q01DX001 (ip), vehicle: saline sonified) was 100 % of control and the T/C (dose: 200.0 mg/kg/injection, schedule: Q01DX001 (ip), vehicle: saline sonified) was 100 % of control.
For `Cc1cc(N(C)C)cc(C)c1N=Nc1cc[n+]([O-])cc1`, the T/C [5] was 104 % of control and the T/C (dose: 100.0 mg/kg/injection, schedule: Q01DX009 (ip), vehicle: saline with Tween-80) was 124 % of control.
With `CN(C)c1ccc2nc3ccc(=[N+](C)C)cc-3sc2c1` the T/C (dose: 2.5 mg/kg/injection, schedule: Q01DX009 (ip), vehicle: saline) was 113 % of control, the T/C (dose: 5.0 mg/kg/injection, schedule: Q01DX009 (ip), vehicle: saline) was 104 % of control and the T/C (dose: 7.2 mg/kg/injection, schedule: Q04DX003 (ip), vehicle: saline) was 110 % of control. For the same molecule, the T/C (dose: 10.0 mg/kg/injection, schedule: Q01DX009 (ip), vehicle: saline) was 122 % of control, the T/C (dose: 10.0 mg/kg/injection, schedule: Q04DX003 (ip), vehicle: saline) was 110 % of control and the T/C (dose: 11.5 mg/kg/injection, schedule: Q04DX003 (ip), vehicle: saline) was 100 % of control. For the same molecule, the T/C (dose: 12.5 mg/kg/injection, schedule: Q01DX009 (ip), vehicle: saline) was 100 % of control, the T/C (dose: 16.5 mg/kg/injection, schedule: Q01DX009 (ip), vehicle: saline) was 95 % of control and 100 % of control and the T/C (dose: 20.0 mg/kg/injection, schedule: Q01DX009 (ip), vehicle: saline) was 104 % of control. For the same molecule, the T/C [2] was 100 % of control and 104 % of control, the T/C (dose: 37.5 mg/kg/injection, schedule: Q01DX009 (ip), vehicle: saline) was 95 % of control and the T/C (dose: 37.5 mg/kg/injection, schedule: Q04DX003 (ip), vehicle: saline) was 100 % of control.
For `Cc1ccc(NC(=O)c2ccccc2C(=O)O)cc1C`, the T/C [6] was 118 % of control, the T/C [7] was 100 % of control and the T/C (dose: 400.0 mg/kg/injection, schedule: Q04DX003 (ip), vehicle: saline with Tween-80) was 118 % of control.
